The values below are quoted from earlier work in patent EP1694242B1, “PROCESS FOR MAKING PHARMACEUTICAL 7-(2-TRIMETHYLSILYLETHYL) CAMPTOTHECIN FORMULATIONS” (BIONUMERIK PHARMACEUTICALS, INC., priority 2003, dated 2005).

For this data set the following is noted: fraction of the potency of the lactone form; background statement.

In the case of `CC[C@@](O)(C(=O)O)c1cc2n(c(=O)c1CO)Cc1cc3ccccc3nc1-2` [carboxylate form of CPT], the “antitumor potency of the carboxylate form relative to the lactone form of CPT” value was “one-tenth”.
